“Also recorded” adds a separate entry of the source.
Key:
[1] = target: BRAF^V600E (Homo sapiens, UniProt P15056, V600E); assay: Western Blot of BRAF (V600E) in A2058 tumor; assay type: in vivo; details: single oral dose; Compound 1 10 mg/kg, encorafenib 35 mg/kg, dabrafenib 100 mg/kg
Procedure: (§1) For the PKPD study, agents were administered to BALB/c nude mice bearing A2058 human melanoma xenografts. Compound 1, encorafenib and dabrafenib were dosed once orally on day 1. Compound 1 was dosed at 10 mg/kg, encorafenib was dosed at 35 mg/kg and dabrafenib was dosed at 100 mg/kg.
(§2) Previously snap-frozen samples were retrieved from −80° C. ultralow freezer, and 30-100 mg of tumor tissue was cut up. The tissue samples were placed in a 2 mL microcentrifuge tube, and 450 μL of RIPA buffer containing 1% Protease inhibitor cocktail and 1% phosphate inhibitor cocktail 2 were added to the tube. Tumor samples were grinded with Tissuelyser at 50 Hz for five minutes, and the tissue lysates were kept on ice for thirty minutes. Tissue lysates were centrifuged at 15,000 rpm at 4° C. for ten minutes. The supernatants were gently transferred to a new microcentrifuge tube and kept of ice. Protein concentrations in the supernatants were measured using the Pierce™ BCA Protein Assay Kit. Based on the result of BCA protein quantification, the samples were diluted to the same final concentration of 4 μg/μL using RIPA buffer, 4×LDS sample buffer, and 10× sample reducing agent. Diluted samples were heated at 100° C. for ten minutes. Remaining denatured samples were used for western blot analysis or kept in the −80° C. ultralow freezer for long term storage.
(§3) Extracted protein samples (5 μL per slot) were loaded to NuPAGE® Novex 4-12% Bis-Tris gel. Electrophoresis was run with MES running buffer at 80 V for thirty minutes, and 120 V for ninety minutes. Protein samples were transferred to nitrocellulose (NC) membranes with iBlot® 2 Gel Transfer Device (P3, seven minutes). The membrane was cut and parts of interest were kept. The membrane was washed with 5 to 10 mL of 1×TBST once for five minutes. Non-specific protein was blocked by 5-10 mL of 1×TBST with 5% nonfat milk at room temperature for one hour. The membrane was washed with 5-10 mL 1×TBST three times for five minutes each. […] Samples were imaged, and chemiluminescence was detected by Amersham Imager 680.

[2] = tested on: A2058 human melanoma xenografts; assay: Efficacy and body weight in A2058 xenografts (Example 39); assay type: in vivo; details: for Tumor Size on PG-D24 / Tumor Size on PG-D28 / Tumor Volume Trace over Time: Mean ± SEM; for Antitumor activity compared with vehicle group: one-way ANOVA, Dunnett
Procedure: Compound 1, encorafenib and dabrafenib were administered to BALB/c nude mice bearing A2058 xenografts orally for 28 days. Compound 1 was dosed twice per day (BID) and dosed at 10 mg/kg from day 0. Encorafenib and dabrafenib were dosed daily (QD) from day 1. Encorafenib was dosed at 35 mg/kg. Dabrafenib was dosed at 100 mg/kg.
Each mouse was inoculated subcutaneously at the right flank with A2058 cells (5×106) in 0.2 mL of PBS supplemented with Matrigel (PBS:Matrigel=1:1) for tumor development. Animals were grouped for efficacy study when the average tumor volume reached 130 mm^3 on day 7 after tumor inoculation and 412 mm^3 for PKPD study on day 14.
At the time of routine monitoring, the animals were checked daily for any effects of tumor growth and treatments on normal behavior such as mobility, food and water consumption (by looking only), body weight gain/loss (body weights were measured twice weekly), eye/hair matting and any other abnormal effect as stated in the protocol. Death and observed clinical signs were recorded on the basis of the numbers of animals within each subset.
Prior to the onset of drug treatment, mice were measured for tumor size in two dimensions using a caliper, and the tumor volume (mm^3) was calculated using formula V=0.5 a×b^2 where a and b are the long and short diameters of the tumor in mm, respectively. Mice were randomized into different treatment groups based on the tumor volume.
The major endpoint was to see if the tumor growth could be delayed or mice could be cured. The tumor size was then used for calculations of T/C value. The T/C value (in percent) is an indication of antitumor effectiveness; T and C are the mean volumes of the treated and control groups, respectively on specified day.
Tumor growth inhibition (TGI) was calculated for each group using the formula: TGI (%) 20=[1−(Ti−T0)/(Ci−C0)]×100; Ti is the average tumor volume of a treatment group on a given day, TO is the average tumor volume of the treatment group on the day of treatment start, Ci is the average tumor volume of the vehicle control group on the same day with Ti, and C0 is the average tumor volume of the vehicle group on the day of treatment start.
A one-way ANOVA followed by Dunnett's multiple comparison test was performed to compare tumor volume among vehicle group and treatment groups. All data were analyzed using GraphPad Prism, * indicates p<0.01, **** indicates p<0.0001 and ns indicates p>0.05.

[3] = tested on: p-ERK; assay: Western Blot of p-ERK and ERK in A2058 tumor; assay type: in vivo, human; details: single oral dose; Compound 1 10 mg/kg, encorafenib 35 mg/kg, dabrafenib 100 mg/kg
Procedure: as §1, §2, §3

[4] = PG-D24, Compound 1 10 mg/kg BID, encorafenib 35 mg/kg QD, dabrafenib 100 mg/kg QD
[5] = PG-D24, Compound 1 10 mg/kg p.o. BID, Encorafenib 35 mg/kg p.o. QD, Dabrafenib 100 mg/kg p.o. QD
[6] = PG-D24, treated / control average tumor volume, Compound 1 10 mg/kg p.o. BID, Encorafenib 35 mg/kg p.o. QD, Dabrafenib 100 mg/kg p.o. QD
[7] = PG-D28, Compound 1 10 mg/kg p.o. BID, Encorafenib 35 mg/kg p.o. QD, Dabrafenib 100 mg/kg p.o. QD
[8] = PG-D28, treated / control average tumor volume, Compound 1 10 mg/kg p.o. BID, Encorafenib 35 mg/kg p.o. QD, Dabrafenib 100 mg/kg p.o. QD
[9] = day 0 (baseline), Compound 1 10 mg/kg p.o. BID × 28 days, Encorafenib 35 mg/kg p.o. QD × 28 days, Dabrafenib 100 mg/kg p.o. QD × 28 days
[10] = day 3, Compound 1 10 mg/kg p.o. BID, Encorafenib 35 mg/kg p.o. QD, Dabrafenib 100 mg/kg p.o. QD
[11] = day 7, Compound 1 10 mg/kg p.o. BID, Encorafenib 35 mg/kg p.o. QD, Dabrafenib 100 mg/kg p.o. QD
[12] = day 10, Compound 1 10 mg/kg p.o. BID, Encorafenib 35 mg/kg p.o. QD, Dabrafenib 100 mg/kg p.o. QD
[13] = day 14, Compound 1 10 mg/kg p.o. BID, Encorafenib 35 mg/kg p.o. QD, Dabrafenib 100 mg/kg p.o. QD
[14] = day 17, Compound 1 10 mg/kg p.o. BID, Encorafenib 35 mg/kg p.o. QD, Dabrafenib 100 mg/kg p.o. QD
[15] = day 21, Compound 1 10 mg/kg p.o. BID, Encorafenib 35 mg/kg p.o. QD, Dabrafenib 100 mg/kg p.o. QD
[16] = day 24, Compound 1 10 mg/kg p.o. BID, Encorafenib 35 mg/kg p.o. QD, Dabrafenib 100 mg/kg p.o. QD
[17] = day 28, Compound 1 10 mg/kg p.o. BID, Encorafenib 35 mg/kg p.o. QD, Dabrafenib 100 mg/kg p.o. QD

Chain of BRAF^V600E (P15056 whole entry V600E): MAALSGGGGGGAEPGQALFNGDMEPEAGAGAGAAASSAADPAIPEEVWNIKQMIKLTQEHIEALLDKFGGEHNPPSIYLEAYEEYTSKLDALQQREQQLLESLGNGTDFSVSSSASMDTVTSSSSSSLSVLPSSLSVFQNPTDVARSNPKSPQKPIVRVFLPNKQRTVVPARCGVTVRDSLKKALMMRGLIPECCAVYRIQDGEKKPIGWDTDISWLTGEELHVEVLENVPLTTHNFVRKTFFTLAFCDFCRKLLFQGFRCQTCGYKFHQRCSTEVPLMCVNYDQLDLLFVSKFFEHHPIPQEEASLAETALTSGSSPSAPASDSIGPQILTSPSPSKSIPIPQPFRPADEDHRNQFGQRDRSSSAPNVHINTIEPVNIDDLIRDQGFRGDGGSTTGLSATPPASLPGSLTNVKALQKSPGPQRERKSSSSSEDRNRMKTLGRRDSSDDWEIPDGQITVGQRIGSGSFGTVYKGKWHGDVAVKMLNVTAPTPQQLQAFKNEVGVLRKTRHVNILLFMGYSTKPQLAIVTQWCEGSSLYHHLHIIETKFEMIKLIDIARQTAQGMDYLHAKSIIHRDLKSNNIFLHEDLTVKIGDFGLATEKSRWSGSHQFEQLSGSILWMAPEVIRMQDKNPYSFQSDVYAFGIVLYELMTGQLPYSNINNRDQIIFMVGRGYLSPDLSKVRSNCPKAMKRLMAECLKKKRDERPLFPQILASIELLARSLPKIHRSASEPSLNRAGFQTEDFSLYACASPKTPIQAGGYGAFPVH

Row | Structure (SMILES) | Expression of BRAF in A2058 tumor [1] | T/C [2, 4] [%] | TGI [2, 4] [%] | TV (mean tumor volume) [2, 4] [mm^3] | TGI [2, 5] [%] | Tumor Size on PG-D24 [2, 5] [mm^3] | Antitumor activity compared with vehicle group ([2]; PG-D24) | T/C [2, 6] [%] | TGI [2, 7] [%] | Tumor Size on PG-D28 [2, 7] [mm^3] | T/C [2, 8] [%] | Tumor Volume Trace over Time [2, 9] [mm^3] | Tumor Volume Trace over Time [2, 10] [mm^3] | Tumor Volume Trace over Time [2, 11] [mm^3] | Tumor Volume Trace over Time [2, 12] [mm^3] | Tumor Volume Trace over Time [2, 13] [mm^3] | Tumor Volume Trace over Time [2, 14] [mm^3] | Tumor Volume Trace over Time [2, 15] [mm^3] | Tumor Volume Trace over Time [2, 16] [mm^3] | Tumor Volume Trace over Time [2, 17] [mm^3] | other results
1 | COC(=O)N[C@@H](C)CNc1nccc(-c2cn(C(C)C)nc2-c2cc(Cl)cc(NS(C)(=O)=O)c2F)n1 [encorafenib] | no effect on the expression of BRAF | 77.22 | 24.04 | 1944 | 24.04 | 1944 ± 160 | no significant antitumor activity | 77.22 | 19.37 | 2354 ± 201 | 81.52 | 130 ± 4 | 189 ± 9 | 302 ± 23 | 477 ± 45 | 756 ± 64 | 1122 ± 120 | 1472 ± 142 | 1944 ± 160 | 2354 ± 201 | Expression of p-ERK in A2058 tumor [3]: inhibited the expression of p-ERK from six to twenty-four hours post dose; also recorded: inhibited the expression of p-ERK from six hours to twenty-four hours post dose
2 | CC(C)(C)c1nc(-c2cccc(NS(=O)(=O)c3c(F)cccc3F)c2F)c(-c2ccnc(N)n2)s1 [dabrafenib] | no effect on the expression of BRAF | 77.37 | 23.87 | 1948 | 23.87 | 1948 ± 150 | no significant antitumor activity | 77.37 | 23.96 | 2227 ± 140 | 77.13 | 130 ± 4 | 203 ± 6 | 361 ± 28 | 572 ± 29 | 921 ± 74 | 1232 ± 105 | 1558 ± 132 | 1948 ± 150 | 2227 ± 140 | Body weight loss (individual mice) ([2]; 100 mg/kg, Group 4, PG-D21 (one mouse also PG-D28)): over 10%; Expression of p-ERK in A2058 tumor [3]: inhibited the expression of p-ERK from six to twenty-four hours post dose; also recorded: inhibited the expression of p-ERK from six hours to twenty-four hours post dose
3 | CCN(C)S(=O)(=O)Nc1ccc(F)c(Oc2ccc3ncn([C@H]4COC5(CCN(C(=O)CC6(O)CCN(c7cc8c(cc7F)c(N7CCC(=O)NC7=O)nn8C)CC6)CC5)C4)c(=O)c3c2)c1C#N [Compound 1, (3R)-3-[6-[2-cyano-3-[[ethyl(methyl)sulfamoyl]amino]-6-fluorophenoxy]-4-oxoquinazolin-3-yl]-8-[2-[1-[3-(2,4-dioxo-1,3-diazinan-1-yl)-5-fluoro-1-methylindazol-6-yl]-4-hydroxypiperidin-4-yl]acetyl]-1-oxa-8-azaspiro[4.5]decane] | inhibited the expression of BRAF from six to forty-eight hours post dose; also recorded: inhibited the expression of BRAF from six hours to forty-eight hours post dose | 37.06 | 66.37 | 933 | 66.37 | 933 ± 119 | significant antitumor activity | 37.06 | 63.41 | 1139 ± 153 | 39.45 | 130 ± 4 | 167 ± 8 | 205 ± 12 | 267 ± 16 | 414 ± 38 | 562 ± 53 | 711 ± 79 | 933 ± 119 | 1139 ± 153 | Expression of p-ERK in A2058 tumor [3]: inhibited the expression of p-ERK from six to twenty-four hours post dose; also recorded: inhibited the expression of p-ERK from six hours to twenty-four hours post dose
